Patent US10961231B2, “NTCP inhibitors” (National Institute of Biological Sciences, Beijing, priority 2018, dated 2021)

The compounds below were run against T1, NTCP (Homo sapiens, UniProt Q14973) (assay: [3H]-TCA uptake assay (NTCP inhibition)). Details: IC50, given as a range, marked * (asterisk not explained).
T1 sequence (Q14973 1-349): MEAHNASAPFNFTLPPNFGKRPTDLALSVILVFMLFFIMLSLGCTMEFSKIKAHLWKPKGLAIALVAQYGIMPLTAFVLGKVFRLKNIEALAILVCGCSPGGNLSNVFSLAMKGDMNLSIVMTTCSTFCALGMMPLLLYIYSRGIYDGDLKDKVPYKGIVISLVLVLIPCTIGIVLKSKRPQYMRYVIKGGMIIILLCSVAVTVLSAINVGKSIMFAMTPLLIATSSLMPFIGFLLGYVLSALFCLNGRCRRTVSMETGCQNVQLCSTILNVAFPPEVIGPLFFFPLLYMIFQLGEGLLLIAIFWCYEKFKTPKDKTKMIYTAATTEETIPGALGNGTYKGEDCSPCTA
Type: cell-based
Outline: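 PTH and HepG2-NTCP cells kept 24 h in PMM to induce NTCP, then exposed 2 h to test compounds or DMSO. Uptake of 1 μM [3H]-taurocholate in Na+ Ringer's buffer (145 mM Na) ran 15 min at 37° C. Cells washed, lysed in 1% Triton X-100, and radioactivity counted by liquid scintillation.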

Row | SMILES | IC50 [µM]
1 | CCC1NC(=O)C(C2OC(Oc3ccc(OCc4ccccc4)cc3)CC2C)N(C)C(=O)C(C(C)C)N(C)C(=O)C(CC(C)C)N(C)C(=O)C(CC(C)C)N(C)C(=O)C(C)NC(=O)C(C)NC(=O)C(CC(C)C)N(C)C(=O)C(C(C)C)NC(=O)C(CC(C)C)N(C)C(=O)CN(C)C1=O (stereo not shown) [Compound 57A-o] | 1 to 100
2 | CCC1NC(=O)C(C2OC(Oc3cc(Cl)cc(OC)c3)CC2C)N(C)C(=O)C(C(C)C)N(C)C(=O)C(CC(C)C)N(C)C(=O)C(CC(C)C)N(C)C(=O)C(C)NC(=O)C(C)NC(=O)C(CC(C)C)N(C)C(=O)C(C(C)C)NC(=O)C(CC(C)C)N(C)C(=O)CN(C)C1=O (stereo not shown) [Compound 59A-o] | 1 to 100
3 | CCC1NC(=O)C(C2OC(Oc3ccc4ccccc4c3)CC2C)N(C)C(=O)C(C(C)C)N(C)C(=O)C(CC(C)C)N(C)C(=O)C(CC(C)C)N(C)C(=O)C(C)NC(=O)C(C)NC(=O)C(CC(C)C)N(C)C(=O)C(C(C)C)NC(=O)C(CC(C)C)N(C)C(=O)CN(C)C1=O (stereo not shown) [Compound 62-o] | 1 to 100
4 | CCC1NC(=O)C(C2OC(Sc3ccc4ccccc4c3)CC2C)N(C)C(=O)C(C(C)C)N(C)C(=O)C(CC(C)C)N(C)C(=O)C(CC(C)C)N(C)C(=O)C(C)NC(=O)C(C)NC(=O)C(CC(C)C)N(C)C(=O)C(C(C)C)NC(=O)C(CC(C)C)N(C)C(=O)CN(C)C1=O (stereo not shown) [Compound 62] | 1 to 100
5 | CCC1NC(=O)C(C2OC(Oc3cc(Cl)cc(OCc4ccccc4)c3)CC2C)N(C)C(=O)C(C(C)C)N(C)C(=O)C(CC(C)C)N(C)C(=O)C(CC(C)C)N(C)C(=O)C(C)NC(=O)C(C)NC(=O)C(CC(C)C)N(C)C(=O)C(C(C)C)NC(=O)C(CC(C)C)N(C)C(=O)CN(C)C1=O (stereo not shown) [Compound 63-o] | 1 to 100
6 | CCC1NC(=O)C(C2OC(Sc3cc(Cl)cc(OCc4ccccc4)c3)CC2C)N(C)C(=O)C(C(C)C)N(C)C(=O)C(CC(C)C)N(C)C(=O)C(CC(C)C)N(C)C(=O)C(C)NC(=O)C(C)NC(=O)C(CC(C)C)N(C)C(=O)C(C(C)C)NC(=O)C(CC(C)C)N(C)C(=O)CN(C)C1=O (stereo not shown) [Compound 63] | 1 to 100
7 | CCC1NC(=O)C(C2OC(Oc3cc(Cl)cc(OCC4CCOCC4)c3)CC2C)N(C)C(=O)C(C(C)C)N(C)C(=O)C(CC(C)C)N(C)C(=O)C(CC(C)C)N(C)C(=O)C(C)NC(=O)C(C)NC(=O)C(CC(C)C)N(C)C(=O)C(C(C)C)NC(=O)C(CC(C)C)N(C)C(=O)CN(C)C1=O (stereo not shown) [Compound 67-o] | 1 to 100
8 | CCC1NC(=O)C(C2OC(Sc3cc(Cl)cc(OCC4CCOCC4)c3)CC2C)N(C)C(=O)C(C(C)C)N(C)C(=O)C(CC(C)C)N(C)C(=O)C(CC(C)C)N(C)C(=O)C(C)NC(=O)C(C)NC(=O)C(CC(C)C)N(C)C(=O)C(C(C)C)NC(=O)C(CC(C)C)N(C)C(=O)CN(C)C1=O (stereo not shown) [Compound 67] | 1 to 100
9 | CCC1NC(=O)C(C2OC(Oc3cccc(N(C)Cc4ccccc4)c3)CC2C)N(C)C(=O)C(C(C)C)N(C)C(=O)C(CC(C)C)N(C)C(=O)C(CC(C)C)N(C)C(=O)C(C)NC(=O)C(C)NC(=O)C(CC(C)C)N(C)C(=O)C(C(C)C)NC(=O)C(CC(C)C)N(C)C(=O)CN(C)C1=O (stereo not shown) [Compound 68-o] | 1 to 100
10 | CCC1NC(=O)C(C2OC(Sc3cccc(N(C)Cc4ccccc4)c3)CC2C)N(C)C(=O)C(C(C)C)N(C)C(=O)C(CC(C)C)N(C)C(=O)C(CC(C)C)N(C)C(=O)C(C)NC(=O)C(C)NC(=O)C(CC(C)C)N(C)C(=O)C(C(C)C)NC(=O)C(CC(C)C)N(C)C(=O)CN(C)C1=O (stereo not shown) [Compound 68] | 1 to 100
11 | CCC1NC(=O)C(C2OC(Oc3cccc(OCc4cccs4)c3)CC2C)N(C)C(=O)C(C(C)C)N(C)C(=O)C(CC(C)C)N(C)C(=O)C(CC(C)C)N(C)C(=O)C(C)NC(=O)C(C)NC(=O)C(CC(C)C)N(C)C(=O)C(C(C)C)NC(=O)C(CC(C)C)N(C)C(=O)CN(C)C1=O (stereo not shown) [Compound 69-o] | 1 to 100

Same assay, conditions: given as a range, marked * (asterisk not explained)

Row | SMILES | IC50 [µM]
12 | CCC1NC(=O)C(C2OC(Oc3cccc(OCc4ccc5ccc(=O)oc5c4)c3)CC2C)N(C)C(=O)C(C(C)C)N(C)C(=O)C(CC(C)C)N(C)C(=O)C(CC(C)C)N(C)C(=O)C(C)NC(=O)C(C)NC(=O)C(CC(C)C)N(C)C(=O)C(C(C)C)NC(=O)C(CC(C)C)N(C)C(=O)CN(C)C1=O (stereo not shown) [Compound 58A-o] | 1 to 100
13 | CCC1NC(=O)C(C2OC(Oc3cc(OC)cc(OCc4ccc(F)cc4)c3)CC2C)N(C)C(=O)C(C(C)C)N(C)C(=O)C(CC(C)C)N(C)C(=O)C(CC(C)C)N(C)C(=O)C(C)NC(=O)C(C)NC(=O)C(CC(C)C)N(C)C(=O)C(C(C)C)NC(=O)C(CC(C)C)N(C)C(=O)CN(C)C1=O (stereo not shown) [Compound 60A-o] | 1 to 100
14 | CCC1NC(=O)C(C2OC(Oc3cc(Cl)cc(OCc4ccc(F)cc4)c3)CC2C)N(C)C(=O)C(C(C)C)N(C)C(=O)C(CC(C)C)N(C)C(=O)C(CC(C)C)N(C)C(=O)C(C)NC(=O)C(C)NC(=O)C(CC(C)C)N(C)C(=O)C(C(C)C)NC(=O)C(CC(C)C)N(C)C(=O)CN(C)C1=O (stereo not shown) [Compound 61A-o] | 1 to 100
15 | CCC1NC(=O)C(C2OC(Oc3ccc(OC)c(OCc4ccccc4)c3)CC2C)N(C)C(=O)C(C(C)C)N(C)C(=O)C(CC(C)C)N(C)C(=O)C(CC(C)C)N(C)C(=O)C(C)NC(=O)C(C)NC(=O)C(CC(C)C)N(C)C(=O)C(C(C)C)NC(=O)C(CC(C)C)N(C)C(=O)CN(C)C1=O (stereo not shown) [Compound 64-o] | 1 to 100
16 | CCC1NC(=O)C(C2OC(Sc3ccc(OC)c(OCc4ccccc4)c3)CC2C)N(C)C(=O)C(C(C)C)N(C)C(=O)C(CC(C)C)N(C)C(=O)C(CC(C)C)N(C)C(=O)C(C)NC(=O)C(C)NC(=O)C(CC(C)C)N(C)C(=O)C(C(C)C)NC(=O)C(CC(C)C)N(C)C(=O)CN(C)C1=O (stereo not shown) [Compound 64] | 1 to 100
17 | CCC1NC(=O)C(C2OC(Oc3cc(OC)cc(OCc4ccccc4)c3)CC2C)N(C)C(=O)C(C(C)C)N(C)C(=O)C(CC(C)C)N(C)C(=O)C(CC(C)C)N(C)C(=O)C(C)NC(=O)C(C)NC(=O)C(CC(C)C)N(C)C(=O)C(C(C)C)NC(=O)C(CC(C)C)N(C)C(=O)CN(C)C1=O (stereo not shown) [Compound 65-o] | 1 to 100
18 | CCC1NC(=O)C(C2OC(Sc3cc(OC)cc(OCc4ccccc4)c3)CC2C)N(C)C(=O)C(C(C)C)N(C)C(=O)C(CC(C)C)N(C)C(=O)C(CC(C)C)N(C)C(=O)C(C)NC(=O)C(C)NC(=O)C(CC(C)C)N(C)C(=O)C(C(C)C)NC(=O)C(CC(C)C)N(C)C(=O)CN(C)C1=O (stereo not shown) [Compound 65] | 1 to 100
19 | CCC1NC(=O)C(C2OC(Oc3cc(OC)cc(OCC4CCOCC4)c3)CC2C)N(C)C(=O)C(C(C)C)N(C)C(=O)C(CC(C)C)N(C)C(=O)C(CC(C)C)N(C)C(=O)C(C)NC(=O)C(C)NC(=O)C(CC(C)C)N(C)C(=O)C(C(C)C)NC(=O)C(CC(C)C)N(C)C(=O)CN(C)C1=O (stereo not shown) [Compound 66-o] | 1 to 100
20 | CCC1NC(=O)C(C2OC(Sc3cc(OC)cc(OCC4CCOCC4)c3)CC2C)N(C)C(=O)C(C(C)C)N(C)C(=O)C(CC(C)C)N(C)C(=O)C(CC(C)C)N(C)C(=O)C(C)NC(=O)C(C)NC(=O)C(CC(C)C)N(C)C(=O)C(C(C)C)NC(=O)C(CC(C)C)N(C)C(=O)CN(C)C1=O (stereo not shown) [Compound 66] | 1 to 100

Same assay, conditions: given as a range; assay not given

Row | SMILES | IC50 [µM]
21 | CCC1NC(=O)C(C2OC(Sc3ccc(OCc4ccccc4)cc3)CC2C)N(C)C(=O)C(C(C)C)N(C)C(=O)C(CC(C)C)N(C)C(=O)C(CC(C)C)N(C)C(=O)C(C)NC(=O)C(C)NC(=O)C(CC(C)C)N(C)C(=O)C(C(C)C)NC(=O)C(CC(C)C)N(C)C(=O)CN(C)C1=O [Compound 57A, [2-((2R,3R)-5-(4-(benzyloxy)phenylthio)-3-methyltetrahydrofuran-2-yl)-2-(methylamino)acetic acid]^1-cyclosporin A] | 0.001 to 1
22 | CCC1NC(=O)C(C2OC(Sc3cccc(OCc4ccc5ccc(=O)oc5c4)c3)CC2C)N(C)C(=O)C(C(C)C)N(C)C(=O)C(CC(C)C)N(C)C(=O)C(CC(C)C)N(C)C(=O)C(C)NC(=O)C(C)NC(=O)C(CC(C)C)N(C)C(=O)C(C(C)C)NC(=O)C(CC(C)C)N(C)C(=O)CN(C)C1=O [Compound 58A, [2-((2R,3R)-3-methyl-5-(3-((2-oxo-2H-chromen-7-yl)methoxy)phenylthio)tetrahydrofuran-2-yl)-2-(methylamino)acetic acid]^1-cyclosporin A] | 0.001 to 1
23 | CCC1NC(=O)C(C2OC(Sc3cc(Cl)cc(OC)c3)CC2C)N(C)C(=O)C(C(C)C)N(C)C(=O)C(CC(C)C)N(C)C(=O)C(CC(C)C)N(C)C(=O)C(C)NC(=O)C(C)NC(=O)C(CC(C)C)N(C)C(=O)C(C(C)C)NC(=O)C(CC(C)C)N(C)C(=O)CN(C)C1=O [Compound 59A, [2-((2R,3R)-5-(3-chloro-5-methoxyphenylthio)-3-methyltetrahydrofuran-2-yl)-2-(methylamino)acetic acid]^1-cyclosporin A] | 0.001 to 1
24 | CCC1NC(=O)C(C2OC(Sc3cc(OC)cc(OCc4ccc(F)cc4)c3)CC2C)N(C)C(=O)C(C(C)C)N(C)C(=O)C(CC(C)C)N(C)C(=O)C(CC(C)C)N(C)C(=O)C(C)NC(=O)C(C)NC(=O)C(CC(C)C)N(C)C(=O)C(C(C)C)NC(=O)C(CC(C)C)N(C)C(=O)CN(C)C1=O [Compound 60A, [2-((2R,3R)-5-(3-(4-fluorobenzyloxy)-5-methoxyphenylthio)-3-methyltetrahydrofuran-2-yl)-2-(methylamino)acetic acid]^1-cyclosporin A] | 0.001 to 1

Same assay, conditions: given as a range; assay not given; read-out: IC50

Row | SMILES | IC50 [µM]
25 | CCC1NC(=O)C(C2OC(Sc3cc(Cl)cc(OCc4ccc(F)cc4)c3)CC2C)N(C)C(=O)C(C(C)C)N(C)C(=O)C(CC(C)C)N(C)C(=O)C(CC(C)C)N(C)C(=O)C(C)NC(=O)C(C)NC(=O)C(CC(C)C)N(C)C(=O)C(C(C)C)NC(=O)C(CC(C)C)N(C)C(=O)CN(C)C1=O [Compound 61A, [2-((2R,3R)-5-(3-chloro-5-(4-fluorobenzyloxy)phenylthio)-3-methyltetrahydrofuran-2-yl)-2-(methylamino)acetic acid] 1-cyclosporin A] | 0.001 to 1
